Measurements published in patent publication US20230093861A1, “RAPAMYCIN ANALOGS AS MTOR INHIBITORS” (Revolution Medicines, Inc., priority 2017, published 2023).
Where two headings read alike, the source gives them in different places.

Key:
P-P70S6K (T389) = test: Cell based AlphaLISA assay, inhibition of P-P70S6K (T389) (mTORC1 substrate phosphorylation) in MDA-MB-468 cells; conditions: Homo sapiens, 4 h, AlphaLISA, two to four hours at 37° C., read-out: pIC50 for Inhibition of mTORC1 and mTORC2 Substrate Phosphorylation, P-P70S6K-(T389) (converted)
Method in brief: (§1)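 Compound incubation stopped by buffer removal plus kit lysis buffer; lysates processed per kit protocol; Alpha signal read in duplicate. IC50: normalized regression fit, control-based normalization.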

P-Akt (S473) = test: Cell based AlphaLISA assay, inhibition of P-Akt (S473) (mTORC2 substrate phosphorylation) in MDA-MB-468 cells; conditions: Homo sapiens, AlphaLISA, two to four hours at 37° C., read-out: pIC50 for Inhibition of mTORC1 and mTORC2 Substrate Phosphorylation, p-AKT 1/2/3 -(S473) (converted)
Method in brief: as §1

P-4E-BP1 (T37/46) = test: Cell based AlphaLISA assay, inhibition of P-4E-BP1 (T37/46) (mTORC1 substrate phosphorylation) in MDA-MB-468 cells; conditions: Homo sapiens, AlphaLISA, two to four hours at 37° C., read-out: pIC50 for Inhibition of mTORC1 and mTORC2 Substrate Phosphorylation, P-4E-BP1-(T37/46) (converted)
Method in brief: as §1

Structure (SMILES)	IC50 (P-P70S6K (T389))	IC50 (P-Akt (S473); MDA-MB-468, 4 h)	IC50 (P-4E-BP1 (T37/46); MDA-MB-468, 4 h)	IC50 (P-Akt (S473); 4 h)	IC50 (P-4E-BP1 (T37/46); 4 h)
CO[C@H]1C[C@@H]2CC[C@@H](C)[C@@](O)(O2)C(=O)C(=O)N2CCCC[C@H]2C(=O)O[C@H]([C@H](C)C[C@@H]2CC[C@@H](OCCCCc3cn(CCOCCOCCOCCOCCOCCOCCOCCOCCC(=O)NCCCCn4nc(I)c5c(N)ncnc54)nn3)[C@H](OC)C2)CC(=O)[C@H](C)/C=C(\C)[C@@H](O)[C@@H](OC)C(=O)[C@H](C)C[C@H](C)/C=C/C=C/C=C/1C [Example 4]	< 0.001 µM	> 1 µM	> 1 µM		
CO[C@H]1C[C@@H]2CC[C@@H](C)[C@@](O)(O2)C(=O)C(=O)N2CCCC[C@H]2C(=O)O[C@H]([C@H](C)C[C@@H]2CC[C@H](n3cc(-c4cccc(C(=O)NCCOCCOCCOCCC(=O)NCCOCCOCCOCCC(=O)NCCCCn5nc(-c6cc7cc(O)ccc7[nH]6)c6c(N)ncnc65)c4)nn3)[C@H](OC)C2)CC(=O)[C@H](C)/C=C(\C)[C@@H](O)[C@@H](OC)C(=O)[C@H](C)C[C@H](C)/C=C/C=C/C=C/1C [Example 138]	0.001 to 0.01 µM	0.0316 to 1 µM	> 1 µM		
CO[C@H]1C[C@@H]2CC[C@@H](C)[C@@](O)(O2)C(=O)C(=O)N2CCCC[C@H]2C(=O)O[C@H]([C@H](C)C[C@@H]2CC[C@H](n3cc(-c4cccc(C(=O)NCCOCCOCCOCCC(=O)NCCOCCOCCOCCC(=O)NCCCCn5nc(-c6ccc7oc(N)nc7c6)c6c(N)ncnc65)c4)nn3)[C@H](OC)C2)CC(=O)[C@H](C)/C=C(\C)[C@@H](O)[C@@H](OC)C(=O)[C@H](C)C[C@H](C)/C=C/C=C/C=C/1C [Example 137]	0.001 to 0.01 µM	0.0316 to 1 µM	0.00316 to 0.0316 µM		
CO[C@H]1C[C@@H]2CC[C@@H](C)[C@@](O)(O2)C(=O)C(=O)N2CCCC[C@H]2C(=O)O[C@H]([C@H](C)C[C@@H]2CC[C@@H](OCCCCc3cn(CCOCCOCCOCCOCCOCCOCCC(=O)NCCCCn4nc(-c5cnc6[nH]ccc6c5)c5c(N)ncnc54)nn3)[C@H](OC)C2)C[C@@H](OC)[C@H](C)/C=C(\C)[C@@H](O)[C@@H](OC)C(=O)[C@H](C)C[C@H](C)/C=C/C=C/C=C/1C [Example 70]	0.001 to 0.01 µM	> 1 µM	> 1 µM		
CO[C@H]1C[C@@H]2CC[C@@H](C)[C@@](O)(O2)C(=O)C(=O)N2CCCC[C@H]2C(=O)O[C@H]([C@H](C)C[C@@H]2CC[C@H](n3cc(-c4cccc(C(=O)NCCOCCOCCOCCC(=O)NCCOCCOCCC(=O)NCCCCn5nc(-c6ccc7oc(N)nc7c6)c6c(N)ncnc65)c4)nn3)[C@H](OC)C2)CC(=O)[C@H](C)/C=C(\C)[C@@H](O)[C@@H](OC)C(=O)[C@H](C)C[C@H](C)/C=C/C=C/C=C/1C [Example 136]	0.001 to 0.01 µM	0.0316 to 1 µM	0.00316 to 0.0316 µM		
CO[C@H]1C[C@@H]2CC[C@@H](C)[C@@](O)(O2)C(=O)C(=O)N2CCCC[C@H]2C(=O)O[C@H]([C@H](C)C[C@@H]2CC[C@H](n3cc(COC(=O)NCCOCCOCCOCCC(=O)NCc4cnc(N5CCN(c6ncc(C(=O)NCCCCn7nc(-c8ccc9oc(N)nc9c8)c8c(N)ncnc87)cn6)CC5)nc4)nn3)[C@H](OC)C2)CC(=O)[C@H](C)/C=C(\C)[C@@H](O)[C@@H](OC)C(=O)[C@H](C)C[C@H](C)/C=C/C=C/C=C/1C [Example 183]	< 0.001 µM	0.00316 to 0.0316 µM	< 0.00316 µM		
CO[C@H]1C[C@@H]2CC[C@@H](C)[C@@](O)(O2)C(=O)C(=O)N2CCCCC2C(=O)O[C@H]([C@H](C)C[C@@H]2CC[C@H](n3cc(COCCOCCOCCOCCOCCOCCOCCOCCOCCOCCC(=O)NCCCCn4nc(-c5ccc6oc(N)nc6c5)c5c(N)ncnc54)nn3)[C@H](OC)C2)CC(=O)[C@H](C)/C=C(\C)[C@@H](O)[C@@H](OC)C(=O)[C@H](C)C[C@H](C)/C=C/C=C/C=C/1C (stereo in doubt) [Example 195]	0.001 to 0.01 µM	0.00316 to 0.0316 µM	0.00316 to 0.0316 µM		
CO[C@H]1C[C@@H]2CC[C@@H](C)[C@@](O)(O2)C(=O)C(=O)N2CCCC[C@H]2C(=O)O[C@H]([C@H](C)C[C@@H]2CC[C@@H](O)[C@H](OC)C2)C[C@@H](O)[C@H](C)/C=C(\C)[C@@H](O)[C@@H](OC)C(=NOCc2cn(CCOCCOCCOCCOCCOCCOCCC(=O)NCCCCn3nc(-c4cc5cc(O)ccc5[nH]4)c4c(N)ncnc43)nn2)[C@H](C)C[C@H](C)/C=C/C=C/C=C/1C [Example 93]	0.001 to 0.01 µM	> 1 µM	0.00316 to 0.0316 µM		
CO[C@H]1C[C@@H]2CC[C@@H](C)[C@@](O)(O2)C(=O)C(=O)N2CCCC[C@H]2C(=O)O[C@H]([C@H](C)C[C@@H]2CC[C@@H](OCCCCc3cn(CCOCCOCCOCCOCCNC(=O)CCC(=O)NCCCCn4nc(-c5ccc6oc(N)nc6c5)c5c(N)ncnc54)nn3)[C@H](OC)C2)CC(=O)[C@H](C)/C=C(\C)[C@@H](O)[C@@H](OC)C(=O)[C@H](C)C[C@H](C)/C=C/C=C/C=C/1C [Example 99]	< 0.001 µM	0.00316 to 0.0316 µM	0.00316 to 0.0316 µM		
CO[C@H]1C[C@@H]2CC[C@@H](C)[C@@](O)(O2)C(=O)C(=O)N2CCCC[C@H]2C(=O)O[C@H]([C@H](C)C[C@@H]2CC[C@@H](OCCCCc3cn(CCOCCOCCOCCOCCOCCOCCOCCOCCC(=O)NCCCCn4ncc5c(N)ncnc54)nn3)[C@H](OC)C2)CC(=O)[C@H](C)/C=C(\C)[C@@H](O)[C@@H](OC)C(=O)[C@H](C)C[C@H](C)/C=C/C=C/C=C/1C [Example 5]	< 0.001 µM	> 1 µM	0.0316 to 1 µM		
COc1cccc2cc(-c3nc([C@H]4CC[C@H](C(=O)NCCOCCOCCOCCNC(=O)CCOCCOCCOCCOCCn5cc(CCCCO[C@@H]6CC[C@@H](C[C@@H](C)[C@@H]7C[C@@H](OC)[C@H](C)/C=C(\C)[C@@H](O)[C@@H](OC)C(=O)[C@H](C)C[C@H](C)/C=C/C=C/C=C(\C)[C@@H](OC)C[C@@H]8CC[C@@H](C)[C@@](O)(O8)C(=O)C(=O)N8CCCC[C@H]8C(=O)O7)C[C@H]6OC)nn5)CC4)n4ncnc(N)c34)[nH]c12 [Example 190]	< 0.001 µM	0.0316 to 1 µM	0.00316 to 0.0316 µM		
CO/N=C1/C[C@@H]([C@H](C)C[C@@H]2CC[C@H](n3cc(COC(=O)NCCOCCOCCOCCC(=O)NCCOCCOCCC(=O)NCCCCn4nc(-c5cc6cc(O)ccc6[nH]5)c5c(N)ncnc54)nn3)[C@H](OC)C2)OC(=O)[C@@H]2CCCCN2C(=O)C(=O)[C@]2(O)O[C@@H](CC[C@H]2C)C[C@H](OC)/C(C)=C/C=C/C=C/[C@@H](C)C[C@@H](C)C(=O)[C@H](OC)[C@H](O)/C(C)=C/[C@H]1C [Example 152]	0.01 to 1 µM	> 1 µM	> 1 µM		
CO[C@H]1C[C@@H]2CC[C@@H](C)[C@@](O)(O2)C(=O)C(=O)N2CCCC[C@H]2C(=O)O[C@H]([C@H](C)C[C@@H]2CC[C@@H](OCCCCc3cn(CCOCCOCCOCCOCCOCCOCCOCCOCCC(=O)N4CCc5cc(Cn6nc(-c7ccc8oc(N)nc8c7)c7c(N)ncnc76)ccc5C4)nn3)[C@H](OC)C2)CC(=O)[C@H](C)/C=C(\C)[C@@H](O)[C@@H](OC)C(=O)[C@H](C)C[C@H](C)/C=C/C=C/C=C/1C [Example 88]	< 0.001 µM			0.00316 to 0.0316 µM	< 0.00316 µM
